Experimental data: patent publication US11358952B2, “Substituted 4-aminoisoindoline-1,3-dione compounds, compositions thereof, and methods of treatment therewith” (Celgene Corporation, priority 2018, dated 2022)

The compounds below were run on SU-DHL-4 cell line (assay: SU-DHL-4 cell proliferation assay (Cell Titer-Glo viability)). Details: Homo sapiens; cell viability IC50 activity level, DLBCL cell line SU-DHL-4, 120 hours post-treatment; read-out: SU-DHL-4 Act.
Format: cell-based
Protocol: SU-DHL-4 Cell Proliferation Assay.
The following is an example of an assay that can be used to determine the anti-proliferative activity of Isoindolinedione Compounds in a DLBCL cell line, for example, the SU-DHL-4 cell line (Deutsche Sammlung von Mikroorganismen and Zellkulturen GmbH [DSMZ]: catalogue number ACC-495) at 120 hours post-treatment. The seeding density for SU-DHL-4 can be optimized to ensure assay linearity in 1536-well plates.
Increasing concentrations of test compounds (0.5 nM to 10 μM) were spotted in a 20-point dilution fashion (unevenly spaced data points) via an acoustic dispenser (EDC ATS-100) into an empty 1536-well plate. The DMSO concentration was kept constant for a final assay concentration of 0.1% DMSO. Prior to testing, SU-DHL-4 cells were grown in RPMI-1640 (Roswell Park Memorial Institute—1640) medium with 10% FBS (fetal bovine serum: HyClone) and expanded in culture flasks to provide sufficient amounts of starting material. Cells were then diluted to 500 cells per well in a 5 μL volume, and added directly to the compound-spotted 1536-well plates. Cells were allowed to grow for 120 hours in 5% CO2 at 37° C. At the time when exposure of cells to compound began (to), initial viable cell number was assessed via Cell Titer-Glo® Luminescent Cell Viability Assay at a 1 vol:2 vol ratio according to manufacturer's instructions (Promega Corporation, Madison, Wis.) by quantifying the level of luminescence generated by adenosine-5′-triphosphate (ATP) present in viable cells. After 120 hours, cell viability of the treated cells was assessed via Cell Titer-Gb® and read for luminescence. All growth inhibition curves were processed and evaluated using Activity Base (IDBS, Alameda, Calif.). Cell viability IC50 values were calculated using a four parameter logistic model (sigmoidal dose-response model): y=(A+((B−A)/(1+((C/x)^D)))) wherein: A=YMin B=YMax C=EC50 D=Hill slope IC50=the concentration of the compound when Y=50% of DMSO control Y=cell viability measured as luminescence unit, and x=concentration of compound.

`Cc1cc(CNc2cccc3c2C(=O)N(C2CCC(=O)NC2=O)C3=O)ccc1CN1CC(c2ccc(C#N)cc2)C1` (stereo not drawn) [Cpd 51, 4-(1-(4-((2-(2,6-dioxopiperidin-3-yl)-1,3-dioxoisoindolin-4-ylamino)methyl)-2-methylbenzyl)aetidin-3-yl)benzonitrile] and `Cc1cc(CNc2cccc3c2C(=O)N(C2CCC(=O)NC2=O)C3=O)ccc1CN1CC(c2cccc(C#N)c2)C1` (stereo not drawn) [Cpd 52, 3-(1-(4-((2-(2,6-dioxopiperidin-3-yl)-1,3-dioxoisoindolin-4-ylamino)methyl)-2-mtehylbenzyl)azetidin-3-yl)benzonitrile] cannot be ordered by IC50: less than 200 nM for the first, less than 200 nM for the second.

`C[C@@H]1CN(c2ccc(C#N)cn2)CCN1Cc1ccc(CNc2cccc3c2C(=O)N(C2CCC(=O)NC2=O)C3=O)cc1` (stereo partly drawn) [Cpd 53, 6-((3R)-4-(4-((2-(2,6-dioxopiperidin-3-yl)-1,3-dioxoisoindolin-4-ylamino)methyl)benzyl)-3-methylpiperazin-1-yl)nicotinonitrile] and `C[C@@H]1CN(c2ccc(C#N)cc2Cl)CCN1Cc1ccc(CNc2cccc3c2C(=O)N(C2CCC(=O)NC2=O)C3=O)cc1` (stereo partly drawn) [Cpd 62, 3-chloro-4-((3R)-4-(4-((2-(2,6-dioxopiperidin-3-yl)-1,3-dioxoisoindolin-4-ylamino)methyl)benzyl)-3-methylpiperazin-1-yl)benzonitrile] cannot be ordered by IC50: less than 200 nM for the first, less than 200 nM for the second.

First: NC(=O)c1ccc(N2CCN(Cc3ccc(CNc4cccc5c4C(=O)N(C4CCC(=O)NC4=O)C5=O)cc3)CC2)nc1 (stereo not drawn) [Cpd 54, 6-(4-(4-((2-(2,6-dioxopiperidin-3-yl)-1,3-dioxoisoindolin-4-ylamino)methyl)benzyl)piperazin-1-yl)nicotinamide]
Second: NC(=O)c1ccc(N2CCN(Cc3ccc(CNc4cccc5c4C(=O)N(C4CCC(=O)NC4=O)C5=O)cc3)CC2)cc1 (stereo not drawn) [Cpd 57, 4-(4-(4-((2-(2,6-dioxopiperidin-3-yl)-1,3-dioxoisoindolin-4-ylamino)methyl)benzyl)piperazin-1-yl)benzamide]
The IC50 of the first is higher: 200 to 500 nM for the first, less than 200 nM for the second. The second is the more potent here.

Compared with `CN(C)C(=O)c1ccc(N2CCN(Cc3ccc(CNc4cccc5c4C(=O)N(C4CCC(=O)NC4=O)C5=O)cc3)CC2)cn1` (stereo not drawn) [Cpd 55, 5-(4-(4-((2-(2,6-dioxopiperidin-3-yl)-1,3-dioxoisoindolin-4-ylamino)methyl)benzyl)piperazin-1-yl)-N,N-dimethylpicolinamide], `NC(=O)c1ccc(N2CCN(Cc3ccc(CNc4cccc5c4C(=O)N([C@H]4CCC(=O)NC4=O)C5=O)cc3)CC2)cn1` [Cpd 58, (S)-5-(4-(4-((2-(2,6-dioxopiperidin-3-yl)-1,3-dioxoisoindolin-4-ylamino)methyl)benzyl)piperazin-1-yl)picolinamide] is lower in IC50: 200 to 500 nM for the first, less than 200 nM for the second. The second is the more potent here.

First: Cc1cc(CNc2cccc3c2C(=O)N(C2CCC(=O)NC2=O)C3=O)ccc1CN1CCC(n2cccn2)CC1 (stereo not drawn) [Cpd 56, 4-(4-((4-(1H-pyrazol-1-yl)piperidin-1-yl)methyl)-3-methylbenzylamino)-2-(2,6-dioxopiperidin-3-yl)isoindoline-1,3-dione]
Second: Cc1cc(CNc2cccc3c2C(=O)N(C2CCC(=O)NC2=O)C3=O)ccc1CN1CC(n2cccn2)C1 (stereo not drawn) [Cpd 77, 4-(4-((3-(1H-pyrazol-1-yl)azetidin-1-yl)methyl)-3-methylbenzylamino)-2-(2,6-dioxopiperidin-3-yl)isoindoline-1,3-dione]
The IC50 of the first is lower: less than 200 nM for the first, 200 to 500 nM for the second.

`Cc1cc(CNc2cccc3c2C(=O)N(C2CCC(=O)NC2=O)C3=O)ccc1CN1CCN(c2ccc(C#N)cc2C)CC1` (stereo not drawn) [Cpd 60, 4-(4-(4-((2-(2,6-dioxopiperidin-3-yl)-1,3-dioxoisoindolin-4-ylamino)methyl)-2-methylbenzyl)piperazin-1-yl)-3-methylbenzonitrile] and `Cc1cc(CNc2cccc3c2C(=O)N(C2CCC(=O)NC2=O)C3=O)ccc1CN1CCN(c2ccc(C#N)cc2Cl)CC1` (stereo not drawn) [Cpd 61, 3-chloro-4-(4-(4-((2-(2,6-dioxopiperidin-3-yl)-1,3-dioxoisoindolin-4-ylamino)methyl)-2-methylbenzyl)piperazin-1-yl)benzonitrile] cannot be ordered by IC50: less than 200 nM for the first, less than 200 nM for the second.

`Cc1cc(CNc2cccc3c2C(=O)N(C2CCC(=O)NC2=O)C3=O)ccc1CN1CCN(c2ccc(C#N)cn2)CC1` (stereo not drawn) [Cpd 63, 6-(4-(4-((2-(2,6-dioxopiperidin-3-yl)-1,3-dioxoisoindolin-4-ylamino)methyl)-2-methylbenzyl)piperazin-1-yl)nicotinonitrile] and `Cc1cc(CNc2cccc3c2C(=O)N(C2CCC(=O)NC2=O)C3=O)ccc1CN1CCN(C(C)C)CC1` (stereo not drawn) [Cpd 69, 2-(2,6-dioxopiperidin-3-yl)-4-(4-((4-isopropylpiperazin-1-yl)methyl)-3-methylbenzylamino)isoindoline-1,3-dione] cannot be ordered by IC50: less than 200 nM for the first, less than 200 nM for the second.

First: O=C1CCC(N2C(=O)c3cccc(NCc4ccc(CN5CC6CC(c7ccc(F)cc7)CC6C5)cc4)c3C2=O)C(=O)N1 [Cpd 64, 2-(2,6-dioxopiperidin-3-yl)-4-(4-(((3aR,5r,6aS)-5-(4-fluorophenyl)hexahydrocyclopenta [c]pyrrol-2-(1H)-yl)methyl)benzylamino)isoindoline-1,3-dione]
Second: N#Cc1ccc(OC2CN(Cc3ccc(CNc4cccc5c4C(=O)N(C4CCC(=O)NC4=O)C5=O)cc3)C2)cc1 (stereo not drawn) [Cpd 74, 4-(1-(4-((2-(2,6-dioxopiperidin-3-yl)-1,3-dioxoisoindolin-4-ylamino)methyl)benzyl)azetidin-3-yloxy)benzonitrile]
The IC50 of the first is lower: 200 to 500 nM for the first, 501 to 750 nM for the second.

Compared with `Cc1cc(CNc2cccc3c2C(=O)N(C2CCC(=O)NC2=O)C3=O)ccc1CN1CCN(CC2CC2)CC1` (stereo not drawn) [Cpd 65, 4-(4-((4-(cyclopropylmethyl)piperazin-1-yl)methyl)-3-methylbenzylamino)-2-(2,6-dioxopiperidin-3-yl)isoindoline-1,3-dione], `Cc1cc(CNc2cccc3c2C(=O)N(C2CCC(=O)NC2=O)C3=O)ccc1CN1CCN(C2CC2)CC1` (stereo not drawn) [Cpd 66, 4-(4-((4-cyclopropylpiperazin-1-yl)methyl)-3-methylbenzylamino)-2-(2,6-dioxopiperidin-3-yl)isoindoline-1,3-dione] is lower in IC50: 200 to 500 nM for the first, less than 200 nM for the second. The second is the more potent here.

First: Cc1cc(C#N)ccc1N1CCN(Cc2ccc(CNc3cccc4c3C(=O)N(C3CCC(=O)NC3=O)C4=O)cc2)[C@H](C)C1 (stereo partly drawn) [Cpd 67, 4-((3R)-4-(4-((2-(2,6-dioxopiperidin-3-yl)-1,3-dioxoisoindolin-4-ylamino)methyl)benzyl)-3-methylpiperazin-1-yl)-3-methylbenzonitrile]
Second: O=C1CCC(N2C(=O)c3cccc(NCc4ccc(CN5CCC6(CCC6)C5)cc4)c3C2=O)C(=O)N1 (stereo not drawn) [Cpd 73, 4-(4-(6-azaspiro[3.4]octan-6-ylmethyl)benzylamino)-2-(2,6-dioxopiperidin-3-yl)isoindoline-1,3-dione]
The IC50 of the first is lower: less than 200 nM for the first, 751 to 1000 nM for the second.

`Cc1cc(CNc2cccc3c2C(=O)N(C2CCC(=O)NC2=O)C3=O)ccc1CN1CCN(C(C)(C)C)CC1` (stereo not drawn) [Cpd 68, 4-(4-((4-tert-butylpiperazin-1-yl)methyl)-3-methylbenzylamino)-2-(2,6-dioxopiperidin-3-yl)isoindoline-1,3-dione] and `Cc1cc(CNc2cccc3c2C(=O)N(C2CCC(=O)NC2=O)C3=O)ccc1CN1CCN(C2CCC2)CC1` (stereo not drawn) [Cpd 70, 4-(4-((4-cyclobutylpiperazin-1-yl)methyl)-3-methylbenzylamino)-2-(2,6-dioxopiperidin-3-yl)isoindoline-1,3-dione] cannot be ordered by IC50: less than 200 nM for the first, less than 200 nM for the second.

First: CC(N1CCN(Cc2ccc(CNc3cccc4c3C(=O)N(C3CCC(=O)NC3=O)C4=O)cc2)CC1)C(F)(F)F (stereo not drawn) [Cpd 71, 2-(2,6-dioxopiperidin-3-yl)-4-(4-((4-(1,1,1,-trifluoropropan-2-yl)piperazin-1-yl)methyl)benzylamino)isoindoline-1,3-dione]
Second: O=C1CCC(N2C(=O)c3cccc(NCc4ccc(CN5CC6(CCCCC6)C5)cc4)c3C2=O)C(=O)N1 (stereo not drawn) [Cpd 72, 4-(4-(2-azaspiro[3.5]nonan-2-ylmethyl)benzylamino)-2-(2,6-dioxopiperidin-3-yl)isoindoline-1,3-dione]
The IC50 of the first is lower: less than 200 nM for the first, 200 to 500 nM for the second.

First: Cc1cc(CNc2cccc3c2C(=O)N(C2CCC(=O)NC2=O)C3=O)ccc1CN1CC2(CCCCC2)C1 (stereo not drawn) [Cpd 75, 4-(4-(2-azaspiro[3.5]nonan-2-ylmethyl)-3-methylbenzylamino)-2-(2,6-dioxopiperidin-3-yl)isoindoline-1,3-dione]
Second: Cc1cc(CNc2cccc3c2C(=O)N(C2CCC(=O)NC2=O)C3=O)ccc1CN1CCC2(CCC2)C1 (stereo not drawn) [Cpd 76, 4-(4-(6-azaspiro[3.4]octan-6-ylmethyl)-3-methylbenzylamino)-2-(2,6-dioxopiperidin-3-yl)isoindoline-1,3-dione]
The IC50 of the first is lower: less than 200 nM for the first, 200 to 500 nM for the second. The first is the more potent here.

`Cc1cc(CNc2cccc3c2C(=O)N(C2CCC(=O)NC2=O)C3=O)ccc1CN1CCC(OC(C)C)CC1` (stereo not drawn) [Cpd 78, 2-(2,6-dioxopiperidin-3-yl)-4-(4-((4-isopropoxypiperidin-1-yl)methyl)-3-methylbenzylamino)isoindoline-1,3-dione] was tested, and the IC50 was less than 200 nM.
